target: T1, Q46 protein aggregates (Homo sapiens, UniProt P42858); assay: Q46 Radioligand Binding Assay (RBA), displacement of [^3H3]MK-3328; details: 10 nM [^3H3]MK-3328, 5 μM Q46 protein aggregates
T1 construct: fused on or other part: An N-terminal GST tag, cleaved off with thrombin before the assay to trigger aggregation
Protocol: For radioligand binding assays (RBA) GST-Q46 protein was generated based on a previous publication (Scherzinger et al. Cell, Vol. 90, 549-558, Aug. 8, 1997). For experiments 33 μM GST-Q46 was incubated with 150 μg/mL thrombin in assay buffer (150 mM NaCl, 50 mM Tris pH 8.0) and 2 mM CaCl2 for 16 hours at 37° C. Aggregated Q46 was pelleted by centrifugation for 5 minutes at 13,000 rpm in a bench top centrifuge and re-dissolved in the same volume of assay buffer. Test compounds were prepared by titration in DMSO at 11 concentrations from 33 μM to 1 nM. For the RBA, Q46 protein aggregates and test compounds were pre-incubated in assay buffer for 20 minutes at room temperature, in 140 μL/well in a 96-well plate (pp, round bottom). Then, ligand was added in 10 μL/well and incubated for 60 minutes at 37° C. Final assay concentrations were 1 μM to 30 pM test compound, 5 μM Q46 protein (equivalent monomer concentration) and 10 nM ligand [^3H3]MK-3328 (Harrision et al., ACS Med. Chem. Lett., 2 (2011), pp 498-502). Samples were transferred onto GF/B filter plates and washed 2× with 200 μL PBS using a Filtermate Harvester. After drying filter plates for 1 hour at 37° C., the back of the plates was sealed with foil and 30 μl/well scintillation fluid (Packard MicroScint 40) was added, incubated for incubated for 15 minutes in the dark and counted in a TopCount reader. For analysis, replicate data from independent assay plates were normalized towards 0% and 100% inhibition using control wells of vehicle (0% inhibition) and 3 μM unlabelled MK-3328 (100% inhibition). IC50 values were determined with a sigmoidal inhibition model with four variables (top, bottom, slope, IC50) in a global fit using the normalized replicate data.

T1 sequence (P42858 with tags, fused parts or gaps with the stated changes, form open): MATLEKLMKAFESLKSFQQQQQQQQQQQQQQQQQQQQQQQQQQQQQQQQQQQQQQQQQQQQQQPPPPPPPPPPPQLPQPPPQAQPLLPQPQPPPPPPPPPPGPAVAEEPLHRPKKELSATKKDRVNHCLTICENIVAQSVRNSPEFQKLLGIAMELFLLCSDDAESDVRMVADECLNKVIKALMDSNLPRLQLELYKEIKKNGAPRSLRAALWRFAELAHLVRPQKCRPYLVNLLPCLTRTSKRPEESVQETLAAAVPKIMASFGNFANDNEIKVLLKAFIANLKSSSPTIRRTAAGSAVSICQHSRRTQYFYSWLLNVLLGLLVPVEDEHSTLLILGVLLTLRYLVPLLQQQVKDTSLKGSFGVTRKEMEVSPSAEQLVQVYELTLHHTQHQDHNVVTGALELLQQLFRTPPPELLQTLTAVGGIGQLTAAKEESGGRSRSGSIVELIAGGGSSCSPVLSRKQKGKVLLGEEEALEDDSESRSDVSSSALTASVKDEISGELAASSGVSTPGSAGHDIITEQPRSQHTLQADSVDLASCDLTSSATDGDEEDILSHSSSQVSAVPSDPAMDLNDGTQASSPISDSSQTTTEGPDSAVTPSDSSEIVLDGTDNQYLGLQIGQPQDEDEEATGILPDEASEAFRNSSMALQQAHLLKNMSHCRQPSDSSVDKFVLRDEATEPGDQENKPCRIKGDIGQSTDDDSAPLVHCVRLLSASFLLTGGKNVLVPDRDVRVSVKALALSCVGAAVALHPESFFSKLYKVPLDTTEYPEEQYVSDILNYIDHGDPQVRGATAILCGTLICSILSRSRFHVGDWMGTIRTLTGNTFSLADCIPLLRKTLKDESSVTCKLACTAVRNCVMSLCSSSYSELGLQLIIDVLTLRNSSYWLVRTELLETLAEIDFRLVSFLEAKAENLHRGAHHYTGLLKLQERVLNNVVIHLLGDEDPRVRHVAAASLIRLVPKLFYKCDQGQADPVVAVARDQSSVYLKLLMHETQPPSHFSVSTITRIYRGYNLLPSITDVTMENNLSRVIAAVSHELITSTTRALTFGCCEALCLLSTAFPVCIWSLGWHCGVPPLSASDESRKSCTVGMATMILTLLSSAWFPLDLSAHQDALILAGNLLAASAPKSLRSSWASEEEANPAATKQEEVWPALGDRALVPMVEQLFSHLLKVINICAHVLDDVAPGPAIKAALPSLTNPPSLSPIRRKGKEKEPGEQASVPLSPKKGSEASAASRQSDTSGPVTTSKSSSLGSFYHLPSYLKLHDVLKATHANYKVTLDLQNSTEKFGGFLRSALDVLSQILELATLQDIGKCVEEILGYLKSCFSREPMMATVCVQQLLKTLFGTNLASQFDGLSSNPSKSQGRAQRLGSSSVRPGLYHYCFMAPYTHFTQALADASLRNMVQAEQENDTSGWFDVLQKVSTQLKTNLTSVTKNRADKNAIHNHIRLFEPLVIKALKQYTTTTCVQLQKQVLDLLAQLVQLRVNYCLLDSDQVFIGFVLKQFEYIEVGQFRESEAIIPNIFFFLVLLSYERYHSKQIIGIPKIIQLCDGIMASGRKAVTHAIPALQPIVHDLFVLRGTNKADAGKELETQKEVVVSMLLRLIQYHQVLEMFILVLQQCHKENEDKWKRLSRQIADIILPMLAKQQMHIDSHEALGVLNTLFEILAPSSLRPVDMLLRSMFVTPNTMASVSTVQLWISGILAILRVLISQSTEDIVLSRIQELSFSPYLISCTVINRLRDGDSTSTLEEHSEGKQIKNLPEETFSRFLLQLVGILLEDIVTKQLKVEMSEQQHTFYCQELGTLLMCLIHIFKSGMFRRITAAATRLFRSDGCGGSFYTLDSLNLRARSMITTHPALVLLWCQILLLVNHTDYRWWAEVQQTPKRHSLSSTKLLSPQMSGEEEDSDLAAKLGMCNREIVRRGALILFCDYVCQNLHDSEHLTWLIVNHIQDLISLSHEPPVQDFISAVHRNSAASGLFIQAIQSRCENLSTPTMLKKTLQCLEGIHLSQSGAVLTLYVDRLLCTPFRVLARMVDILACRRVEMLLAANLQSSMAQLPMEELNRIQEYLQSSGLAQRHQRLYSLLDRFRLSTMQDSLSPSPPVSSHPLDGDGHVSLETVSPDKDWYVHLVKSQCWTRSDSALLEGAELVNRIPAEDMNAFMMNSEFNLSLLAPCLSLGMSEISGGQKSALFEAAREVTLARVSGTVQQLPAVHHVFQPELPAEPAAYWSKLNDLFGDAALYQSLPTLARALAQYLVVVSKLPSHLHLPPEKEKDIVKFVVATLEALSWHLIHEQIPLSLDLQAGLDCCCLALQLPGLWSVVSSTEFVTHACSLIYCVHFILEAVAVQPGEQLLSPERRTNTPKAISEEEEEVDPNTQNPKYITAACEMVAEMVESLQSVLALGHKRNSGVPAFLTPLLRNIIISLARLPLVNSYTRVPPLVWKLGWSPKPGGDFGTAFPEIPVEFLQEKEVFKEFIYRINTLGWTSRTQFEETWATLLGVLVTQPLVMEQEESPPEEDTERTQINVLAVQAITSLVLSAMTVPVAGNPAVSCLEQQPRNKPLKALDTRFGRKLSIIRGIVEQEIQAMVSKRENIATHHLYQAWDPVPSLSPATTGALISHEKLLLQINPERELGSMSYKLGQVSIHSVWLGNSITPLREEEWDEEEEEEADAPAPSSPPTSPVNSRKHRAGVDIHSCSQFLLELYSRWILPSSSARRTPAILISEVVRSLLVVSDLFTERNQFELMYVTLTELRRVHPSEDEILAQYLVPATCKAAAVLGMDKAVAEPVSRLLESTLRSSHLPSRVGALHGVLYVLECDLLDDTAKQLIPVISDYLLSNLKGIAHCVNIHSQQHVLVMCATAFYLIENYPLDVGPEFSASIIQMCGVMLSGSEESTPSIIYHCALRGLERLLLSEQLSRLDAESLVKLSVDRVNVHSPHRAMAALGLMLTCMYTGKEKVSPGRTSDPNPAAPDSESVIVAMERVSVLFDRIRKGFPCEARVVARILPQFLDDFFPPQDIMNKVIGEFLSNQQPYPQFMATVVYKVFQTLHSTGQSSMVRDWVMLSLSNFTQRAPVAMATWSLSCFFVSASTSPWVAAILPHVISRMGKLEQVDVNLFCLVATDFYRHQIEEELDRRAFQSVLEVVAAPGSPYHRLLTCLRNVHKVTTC

IC50, > 500 nM:
COc1ccc2c(c1)sc1nc(C(=O)N3CCc4ccncc43)cn12 [10-methoxy-4-{1H,2H,3H-pyrrolo[2,3-c]pyridine-1-carbonyl}-7-thia-2,5-diazatricyclo[6.4.0.0^2,6]dodeca-1(12),3,5,8,10-pentaene], COc1ccc2c(c1)sc1nc(C(=O)NCc3cccnc3)cn12 [10-methoxy-N-(pyridin-3-ylmethyl)-7-thia-2,5-diazatricyclo[6.4.0.0^2,6]dodeca-1(12),3,5,8,10-pentaene-4-carboxamide]

IC50, < 100 nM:
COc1cncc(NC(=O)c2ccn3c(n2)nc2ccc(OC)cc23)c1 [4-methoxy-N-(5-methoxypyridin-3-yl)-1,8,10-triazatricyclo[7.4.0.0^2,7]trideca-2(7),3,5,8,10,12-hexaene-11-carboxamide], COc1ccc2c(c1)nc1nc(C(=O)N3Cc4cnn(C)c4C3)ccn12 [5-methoxy-11-{1-methyl-1H,4H,5H,6H-pyrrolo[3,4-c]pyrazole-5-carbonyl}-1,8,10-triazatricyclo[7.4.0.0^2,7]trideca-2(7),3,5,8,10,12-hexaene], COc1ccc2c(c1)nc1nc(C(=O)Nc3ccc(=O)n(C)n3)ccn12 [5-methoxy-N-(1-methyl-6-oxo-1,6-dihydropyridazin-3-yl)-1,8,10-triazatricyclo[7.4.0.0^2,7]trideca-2(7),3,5,8,10,12-hexaene-11-carboxamide], COc1cncc(NC(=O)c2ccn3c(n2)nc2cc(OC)ccc23)c1 [5-methoxy-N-(5-methoxypyridin-3-yl)-1,8,10-triazatricyclo[7.4.0.0^2,7]trideca-2(7),3,5,8,10,12-hexaene-11-carboxamide], COc1ccc2c(c1)nc1nc(C(=O)Nc3ccc(OC)nc3)ccn12 [5-methoxy-N-(6-methoxypyridin-3-yl)-1,8,10-triazatricyclo[7.4.0.0^2,7]trideca-2(7),3,5,8,10,12-hexaene-11-carboxamide], COc1ccc2c(c1)nc1nc(C(=O)Nc3cccnc3)ccn12 [5-methoxy-N-(pyridin-3-yl)-1,8,10-triazatricyclo[7.4.0.0^2,7]trideca-2(7),3,5,8,10,12-hexaene-11-carboxamide], O=C(Nc1cccnc1)c1cn2c(n1)sc1cc(OCCF)ccc12 [10-(2-fluoroethoxy)-N-(pyridin-3-yl)-7-thia-2,5-diazatricyclo[6.4.0.0^2,6]dodeca-1(8),3,5,9,11-pentaene-4-carboxamide], COc1ccc(COc2ccc3c(c2)sc2nc(C(=O)Nc4cncc(OC)c4)cn23)nc1 [10-[(5-methoxypyridin-2-yl)methoxy]-N-(5-methoxypyridin-3-yl)-7-thia-2,5-diazatricyclo[6.4.0.0^2,6]dodeca-1(12),3,5,8,10-pentaene-4-carboxamide], COc1ccc(NC(=O)c2cn3c(n2)sc2cc(O)ccc23)cn1 [10-hydroxy-N-(6-methoxypyridin-3-yl)-7-thia-2,5-diazatricyclo[6.4.0.0^2,6]dodeca-1(12),3,5,8,10-pentaene-4-carboxamide], O=C(Nc1cccnc1)c1cn2c(n1)sc1cc(O)ccc12 [10-hydroxy-N-(pyridin-3-yl)-7-thia-2,5-diazatricyclo[6.4.0.0^2,6]dodeca-1(12),3,5,8,10-pentaene-4-carboxamide], COc1ccc2c(c1)sc1nc(C(=O)N3Cc4cnn(C)c4C3)cn12 [10-methoxy-4-{1-methyl-1H,4H,5H,6H-pyrrolo[3,4-c]pyrazole-5-carbonyl}-7-thia-2,5-diazatricyclo[6.4.0.0^2,6]dodeca-1(12),3,5,8,10-pentaene], COc1ccc2c(c1)nc1sc(C(=O)Nc3ccc(=O)n(C)n3)cn12 [10-methoxy-N-(1-methyl-6-oxo-1,6-dihydropyridazin-3-yl)-5-thia-2,7-diazatricyclo[6.4.0.0^2,6]dodeca-1(12),3,6,8,10-pentaene-4-carboxamide], COc1ccc2c(c1)nc1sc(C(=O)Nc3cnc(C)nc3)cn12 [10-methoxy-N-(2-methylpyrimidin-5-yl)-5-thia-2,7-diazatricyclo[6.4.0.0^2,6]dodeca-1(8),3,6,9,11-pentaene-4-carboxamide], COc1ccc2c(c1)sc1nc(C(=O)Nc3cnc(C)nc3)cn12 [10-methoxy-N-(2-methylpyrimidin-5-yl)-7-thia-2,5-diazatricyclo[6.4.0.0^2,6]dodeca-1(12),3,5,8,10-pentaene-4-carboxamide], COc1ccc(NC(=O)c2cn3c(n2)sc2cc(OC)ccc23)nc1 [10-methoxy-N-(5-methoxypyridin-2-yl)-7-thia-2,5-diazatricyclo[6.4.0.0^2,6]dodeca-1(12),3,5,8,10-pentaene-4-carboxamide], COc1cncc(NC(=O)c2cn3c(nc4cc(OC)ccc43)s2)c1 [10-methoxy-N-(5-methoxypyridin-3-yl)-5-thia-2,7-diazatricyclo[6.4.0.0^2,6]dodeca-1(12),3,6,8,10-pentaene-4-carboxamide], COc1cncc(NC(=O)c2cn3c(n2)sc2nc(OC)ccc23)c1 [10-methoxy-N-(5-methoxypyridin-3-yl)-7-thia-2,5,9-triazatricyclo[6.4.0.0^2,6]dodeca-1(12),3,5,8,10-pentaene-4-carboxamide], COc1cncc(NC(=O)c2cn3c(n2)sc2cc(OC)ccc23)c1 [10-methoxy-N-(5-methoxypyridin-3-yl)-7-thia-2,5-diazatricyclo[6.4.0.0^2,6]dodeca-1(12),3,5,8,10-pentaene-4-carboxamide], COc1ccc2c(c1)sc1nc(C(=O)Nc3ccc(OC)nc3)cn12 [10-methoxy-N-(6-methoxypyridin-3-yl)-7-thia-2,5-diazatricyclo[6.4.0.0^2,6]dodeca-1(12),3,5,8,10-pentaene-4-carboxamide], COc1ccc2c(c1)sc1nc(C(=O)Nc3ccc(C)nc3)cn12 [10-methoxy-N-(6-methylpyridin-3-yl)-7-thia-2,5-diazatricyclo[6.4.0.0^2,6]dodeca-1(12),3,5,8,10-pentaene-4-carboxamide], COc1ccc2c(c1)sc1nc(C(=O)Nc3ccc(=O)[nH]n3)cn12 [10-methoxy-N-(6-oxo-1,6-dihydropyridazin-3-yl)-7-thia-2,5-diazatricyclo[6.4.0.0^2,6]dodeca-1(12),3,5,8,10-pentaene-4-carboxamide], COc1ccc2c(c1)sc1nc(C(=O)Nc3ccc(=O)[nH]c3)cn12 [10-methoxy-N-(6-oxo-1,6-dihydropyridin-3-yl)-7-thia-2,5-diazatricyclo[6.4.0.0^2,6]dodeca-1(12),3,5,8,10-pentaene-4-carboxamide], COc1ccc2c(c1)sc1nc(C(=O)Nc3cnccn3)cn12 [10-methoxy-N-(pyrazin-2-yl)-7-thia-2,5-diazatricyclo[6.4.0.0^2,6]dodeca-1(12),3,5,8,10-pentaene-4-carboxamide], COc1ccc2c(n1)sc1nc(C(=O)Nc3cccnc3)cn12 [10-methoxy-N-(pyridin-3-yl)-7-thia-2,5,9-triazatricyclo[6.4.0.0^2,6]dodeca-1(12),3,5,8,10-pentaene-4-carboxamide], COc1ccc2c(c1)sc1nc(C(=O)Nc3cccnc3)cn12 [10-methoxy-N-(pyridin-3-yl)-7-thia-2,5-diazatricyclo[6.4.0.0^2,6]dodeca-1(12),3,5,8,10-pentaene-4-carboxamide], COc1ccc2c(c1)sc1nc(C(=O)Nc3ccncc3)cn12 [10-methoxy-N-(pyridin-4-yl)-7-thia-2,5-diazatricyclo[6.4.0.0^2,6]dodeca-1(12),3,5,8,10-pentaene-4-carboxamide]

IC50, 100 to 500 nM:
COc1ccc2c(c1)sc1nc(C(=O)Nc3ccc[n+]([O-])c3)cn12 [3-{10-methoxy-7-thia-2,5-diazatricyclo[6.4.0.0^2,6]dodeca-1(12),3,5,8,10-pentaene-4-amido}pyridin-1-ium-1-olate], COc1cncc(NC(=O)c2cn3c(n2)sc2cc(CN(C)C)ccc23)c1 [10-[(dimethylamino)methyl]-N-(5-methoxypyridin-3-yl)-7-thia-2,5-diazatricyclo[6.4.0.0^2,6]dodeca-1(12),3,5,8,10-pentaene-4-carboxamide], COc1ccc2c(c1)sc1nc(C(=O)Nc3cnn(C)c3)cn12 [10-methoxy-N-(1-methyl-1H-pyrazol-4-yl)-7-thia-2,5-diazatricyclo[6.4.0.0^2,6]dodeca-1(12),3,5,8,10-pentaene-4-carboxamide], COCCNC(=O)c1cn2c(n1)sc1cc(OC)ccc12 [10-methoxy-N-(2-methoxyethyl)-7-thia-2,5-diazatricyclo[6.4.0.0^2,6]dodeca-1(12),3,5,8,10-pentaene-4-carboxamide]

— US10765764B2, “Probes for imaging huntingtin protein” (CHDI Foundation, Inc., priority 2015, dated 2020)
